Experimental data taken from patent US11400059B2, “Treatment of pain and/or pain related symptoms associated with dysmenorrhea” (ALYRA BIOTECH PTY LTD, priority 2017, dated 2022).

How the values were obtained:
[1] = test system: spinal astrocytes (GFAP) in the dorsal horn of the spinal cord; assay: Spinal astrocyte activation (GFAP immunofluorescence) after intrauterine LPS; assay type: in vivo, mouse (Balb/C); settings: intrauterine, mixed with LPS 100 μg/kg on first day of estrus and alone the subsequent day, 3 estrous cycles; amitriptyline 28 μg/kg, TAK-242 36 μg/kg; vs LPS
Experimental: (§1) Group 1 included twelve mice with 20 μl endotoxin-free saline introduced to the uterus on the first day of estrus and the subsequent day over 3 consecutive estrous cycles. Group 2 included twelve mice with LPS (100 μg/kg) instilled in the uterus on the first day of estrus and saline injected on the subsequent day over 3 consecutive estrous cycles. Group 3 included twelve mice with LPS (100 μg/kg) mixed with amitriptyline (20 μl of a 100 μM solution, equivalent to 28 μg/kg) instilled in the uterus on the first day of estrus, and amitriptyline alone instilled on the subsequent day over 3 consecutive estrous cycles. Group 4 included 14 mice with LPS (100 μg/kg) mixed with TAK-242 (20 μl of a 100 μM solution, equivalent to 36 μg/kg) instilled on the first day of estrus and TAK-242 alone instilled on the subsequent day over 3 consecutive estrous cycles.
(§2) The investigation involved the instillation of 20 ul of an endotoxin-free 0.9% saline solution into the uterus of all animals on the first day of estrus and the subsequent day during 3 consecutive estrous cycles. Additional agents added to the saline were included according to the groups outlined below. Where LPS is administered, this was done on only 1 day per estrous cycle.
(§3) Where amitriptyline or TAK-242 was administered, this is on both the first day of estrus and the subsequent day.
(§4) The spinal cord was assessed using immunohistochemistry techniques across levels T10, T11, T12, T13, L1, L2, L3, L4, L5, L6, S1 and S2 for Groups 1 and 2, where T represents the thoracic segment of the spinal cord, L represents the lumbar segment of the spinal cord and S represents the sacral segment of the spinal cord.
as §4, with “levels” for “levels T10, T11,”, “L6, S” for “L6, S1”, “Groups 3” for “Groups 1”, “and 4,” for “and 2,”, “cord. […]” for “cord.”

[2] = test system: spinal microglia (Iba1) in the dorsal horn of the spinal cord; assay: Spinal microglial activation (Iba1 immunofluorescence) after intrauterine LPS; assay type: in vivo, mouse (Balb/C); settings: intrauterine, mixed with LPS 100 μg/kg on first day of estrus and alone the subsequent day, 3 estrous cycles; amitriptyline 28 μg/kg, TAK-242 36 μg/kg; vs LPS
Experimental: as §1, §2, §3, §4
as §4, with “levels” for “levels T10, T11,”, “L6, S” for “L6, S1”, “Groups 3” for “Groups 1”, “and 4,” for “and 2,”, “cord. […]” for “cord.”

[3] = test system: spinal glial cells in the dorsal horn of the spinal cord; assay: Spinal glial activation (astrocytes and microglia) after intrauterine LPS, overall statements; assay type: in vivo, mouse (Balb/C); settings: for spinal glial activation induced by intrauterine LPS: intrauterine co-administration with LPS
Excerpt: In the model, we investigated whether intrauterine LPS administration would cause an activation of the innate immune system in the uterus, replicating the inflammation often seen in dysmenorrhea, with possible association with pain. As inflammation is intrinsically linked with pain, we investigated whether activation of the innate immune system in the uterus would induce activation of spinal glial cells (central nervous system immune cells) in the dorsal horn of the spinal cord. Spinal glial cells include astrocytes and microglia. Activation of spinal glial cells was assessed using immunoflourescent staining with GFAP (astrocytes) or Iba1 (microglia). We then investigated if spinal glial activation is attenuated by the innate immune system blocking drugs amitriptyline and TAK-242.
as §1
Determination of spinal glial response was then assessed using immunofluorescence to confirm the validity of the experimental model.
Determination of the ability of TLR4 antagonists to block the activation of spinal astrocytes and microglia induced by intra-uterine instillation of LPS was assessed.
An assessment of glial activation was made using immunochemistry techniques including Ionized calcium binding adaptor molecule 1 (Iba1) expression and glial fibrillary-associated protein (GFAP) variability in the dorsal horn. Iba1 expression is a marker for microglial activation, and GFAP is a marker for astrocyte activation. The spinal cord levels chosen are consistent with the level of spinal afferent neurons associated with the pelvis, including the uterus in the mouse.

human Mincle = biological target: T1, human Mincle (Homo sapiens, UniProt Q9ULY5); assay: Human CLR antagonist screening, NF-κB SEAP reporter in HEK293 cells; assay type: cell-based; settings: antagonist mode, Ami 1 μM, +TDB 5 μg/mL, No Sample 6, Control− 1
T1 construct: expressed in transfected cells; host or cells: HEK293
Experimental: Toll-Like Receptor (TLR), NOD-Like Receptor (NLR) and C-Type Lectin Receptor (CLR) stimulation were tested by assessing NF-κB activation in HEK293 cells expressing a given TLR, NLR or CLR. The activity of the test articles was tested at one concentration and compared to control ligands. These steps were performed in triplicate.
hMincle: Trehalose-6,6-dibehenate (TDB) at 10 μg/mL Antagonist: 5 μg/mL.
In a 96-well plate (200 μL total volume) containing the appropriate cells (50,000-75,000 cells/well), 20 μL of the test article or the positive control ligand was added to the wells. For the antagonist assay, the test article was incubated with the cells, at 37° C. with 5% CO2, for 30 minutes prior to the addition of the positive control ligand to the wells. The media added to the wells was designed for the detection of NF-κB induced SEAP expression. After a 16-24 hr incubation the optical density (OD) was read at 650 nm on a Molecular Devices SpectraMax 340PC absorbance detector.

[4] = taken orally; cited from earlier work

T1 sequence (Q9ULY5 whole entry): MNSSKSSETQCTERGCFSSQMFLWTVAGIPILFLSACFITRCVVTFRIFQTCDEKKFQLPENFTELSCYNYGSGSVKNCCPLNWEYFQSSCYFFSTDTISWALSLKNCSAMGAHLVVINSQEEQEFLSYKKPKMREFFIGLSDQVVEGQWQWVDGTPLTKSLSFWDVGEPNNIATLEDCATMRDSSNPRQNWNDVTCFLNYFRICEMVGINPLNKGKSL

SMILES: CN(C)CCC=C1c2ccccc2CCc2ccccc21 [Amitriptyline]
- astrocytic reactivity (GFAP staining), impact of intrauterine LPS at multiple levels of the spinal cord [1]: reduced astrocytic reactivity to below basal levels
- microglial reactivity (Iba1 staining), impact of intrauterine LPS at multiple levels of the spinal cord [2]: reduced microglial reactivity to basal levels
- spinal glial activation induced by intrauterine LPS [3]: additional activity reducing spinal glial activation above TAK-242 alone
- spinal glial activation induced by intrauterine LPS ([3]; listed as amitriptyline): prevented
- dose effective at reducing spinal glial activation ([3]; mouse model, intrauterine administration): 0.027 mg/kg
- Fold Induction (human Mincle): slight inhibitory effect
- Fold Induction (human Mincle; listed as Ami): 5
- side effects [4]: drowsiness, dry mouth, blurred vision, pupil dilation, constipation, weight and urinary retention
